In patent US20220348569A1 (priority 2021, published 2022):
≈ marks a conversion by molar mass, not a printed value. Where “and” joins values, the source holds several entries; their conditions need not be identical. Equal values may be shown once. Entries after “also recorded” stand apart in the source; their conditions may differ. Read-outs that look alike come from different tables or passages of the source.

Experiments:
SARS-CoV pseudovirus [1] = experiment: microbe, parasite or virus in culture; type: cell-based; details: Severe acute respiratory syndrome coronavirus, 293T/ACE2
SARS-CoV pseudovirus [2] = experiment: microbe, parasite or virus in culture; type: cell-based; details: Severe acute respiratory syndrome coronavirus, A549-ACE2
MERS-CoV pseudovirus [3] = experiment: microbe, parasite or virus in culture; type: cell-based; details: Middle East respiratory syndrome-related coronavirus, Huh-7
MERS-CoV pseudovirus [4] = experiment: microbe, parasite or virus in culture; type: cell-based; details: Middle East respiratory syndrome-related coronavirus, MRC5
[5] = system: SARS-CoV-2 (US_WA-1/2020); type: cell-based
[6] = system: SARS-CoV-2 full Spike wild-type (Wuhan-Hu-1) mediated cell-to-cell fusion; experiment: cells; type: cell-based
[7] = target: SARS-CoV-2 spike (active trimer) His-tag (Severe acute respiratory syndrome coronavirus 2, UniProt P0DTC2); type: binding
SARS-CoV-2 pseudovirus = experiment: microbe, parasite or virus in culture; type: cell-based
[8] = rat, in vivo
[9] = pH 7.4
[10] = human, microsomes
CYP1A2 = CYP1A2 (Homo sapiens, UniProt P05177)
Sequence of CYP1A2 (P05177 whole entry): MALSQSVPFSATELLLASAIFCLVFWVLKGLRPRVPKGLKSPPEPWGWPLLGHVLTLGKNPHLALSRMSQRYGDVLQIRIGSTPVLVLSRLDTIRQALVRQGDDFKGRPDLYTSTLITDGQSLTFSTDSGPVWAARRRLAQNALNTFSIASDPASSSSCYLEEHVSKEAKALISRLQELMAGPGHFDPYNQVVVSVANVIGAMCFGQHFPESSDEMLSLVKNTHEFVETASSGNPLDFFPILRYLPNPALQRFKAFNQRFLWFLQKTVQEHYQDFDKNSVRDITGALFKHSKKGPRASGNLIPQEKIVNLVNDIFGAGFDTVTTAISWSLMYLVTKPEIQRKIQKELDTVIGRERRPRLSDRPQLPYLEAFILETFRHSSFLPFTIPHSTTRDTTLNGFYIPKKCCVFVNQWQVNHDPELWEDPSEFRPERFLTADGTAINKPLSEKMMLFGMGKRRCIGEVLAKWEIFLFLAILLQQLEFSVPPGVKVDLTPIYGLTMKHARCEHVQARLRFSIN

CYP2B6 = CYP2B6 (Homo sapiens, UniProt P20813)
Sequence of CYP2B6 (P20813 whole entry): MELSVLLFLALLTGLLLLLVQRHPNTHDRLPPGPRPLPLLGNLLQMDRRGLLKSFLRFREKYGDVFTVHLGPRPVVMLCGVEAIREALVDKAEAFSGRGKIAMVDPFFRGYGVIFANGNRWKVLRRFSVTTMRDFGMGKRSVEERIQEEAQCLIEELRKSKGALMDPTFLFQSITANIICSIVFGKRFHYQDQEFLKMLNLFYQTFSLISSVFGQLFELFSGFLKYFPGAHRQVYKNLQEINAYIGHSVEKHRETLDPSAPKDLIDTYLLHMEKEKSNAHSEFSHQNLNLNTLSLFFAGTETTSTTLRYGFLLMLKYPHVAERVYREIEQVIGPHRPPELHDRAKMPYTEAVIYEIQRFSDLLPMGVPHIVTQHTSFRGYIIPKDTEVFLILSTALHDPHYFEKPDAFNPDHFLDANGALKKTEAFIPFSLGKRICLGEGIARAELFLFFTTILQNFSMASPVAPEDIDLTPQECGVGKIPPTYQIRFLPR

CYP2C8 = CYP2C8 (Homo sapiens, UniProt P10632)
Sequence of CYP2C8 (P10632 whole entry): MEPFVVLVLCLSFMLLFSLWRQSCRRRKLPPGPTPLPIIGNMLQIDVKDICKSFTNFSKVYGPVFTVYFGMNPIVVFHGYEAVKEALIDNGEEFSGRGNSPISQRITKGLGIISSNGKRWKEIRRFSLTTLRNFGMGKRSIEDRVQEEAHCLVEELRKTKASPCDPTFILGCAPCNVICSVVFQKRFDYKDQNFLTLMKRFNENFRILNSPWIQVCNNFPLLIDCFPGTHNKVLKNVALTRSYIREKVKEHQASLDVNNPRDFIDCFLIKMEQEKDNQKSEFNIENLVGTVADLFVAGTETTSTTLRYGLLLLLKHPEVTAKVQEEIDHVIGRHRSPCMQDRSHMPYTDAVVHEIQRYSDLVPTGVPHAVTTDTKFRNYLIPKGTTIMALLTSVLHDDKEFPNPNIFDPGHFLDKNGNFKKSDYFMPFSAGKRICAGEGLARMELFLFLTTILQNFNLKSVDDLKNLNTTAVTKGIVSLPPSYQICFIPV

CYP2C9 = CYP2C9 (Homo sapiens, UniProt P11712)
Sequence of CYP2C9 (P11712 whole entry): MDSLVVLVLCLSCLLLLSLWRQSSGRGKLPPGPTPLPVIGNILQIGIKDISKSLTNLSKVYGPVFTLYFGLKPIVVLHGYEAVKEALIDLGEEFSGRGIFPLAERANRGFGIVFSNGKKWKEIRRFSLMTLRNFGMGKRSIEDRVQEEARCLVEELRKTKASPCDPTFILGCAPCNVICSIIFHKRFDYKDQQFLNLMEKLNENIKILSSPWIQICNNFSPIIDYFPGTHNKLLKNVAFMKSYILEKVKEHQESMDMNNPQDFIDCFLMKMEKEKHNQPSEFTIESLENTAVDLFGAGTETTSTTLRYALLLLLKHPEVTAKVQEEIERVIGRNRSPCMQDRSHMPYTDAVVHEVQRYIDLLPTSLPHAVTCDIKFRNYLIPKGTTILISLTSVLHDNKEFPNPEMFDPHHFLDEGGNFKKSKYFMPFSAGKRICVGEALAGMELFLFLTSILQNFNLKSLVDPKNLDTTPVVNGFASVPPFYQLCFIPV

CYP2C19 = CYP2C19 (Homo sapiens, UniProt P33261)
Sequence of CYP2C19 (P33261 whole entry): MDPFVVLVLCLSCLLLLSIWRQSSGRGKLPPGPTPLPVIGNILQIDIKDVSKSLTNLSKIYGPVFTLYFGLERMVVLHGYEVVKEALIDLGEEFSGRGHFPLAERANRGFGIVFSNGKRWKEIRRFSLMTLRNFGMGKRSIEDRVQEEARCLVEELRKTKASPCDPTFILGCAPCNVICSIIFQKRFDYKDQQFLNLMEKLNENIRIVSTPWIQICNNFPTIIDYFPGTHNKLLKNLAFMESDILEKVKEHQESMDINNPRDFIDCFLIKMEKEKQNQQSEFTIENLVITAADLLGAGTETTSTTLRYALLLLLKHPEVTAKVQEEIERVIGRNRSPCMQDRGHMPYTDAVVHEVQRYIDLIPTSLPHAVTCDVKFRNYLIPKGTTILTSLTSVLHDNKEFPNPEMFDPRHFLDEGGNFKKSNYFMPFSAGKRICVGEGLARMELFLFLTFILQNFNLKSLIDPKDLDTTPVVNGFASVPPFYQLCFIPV

CYP2D6 [11] = target: T1, CYP2D6 (Homo sapiens, UniProt P10635)
T1 sequence (P10635 whole entry): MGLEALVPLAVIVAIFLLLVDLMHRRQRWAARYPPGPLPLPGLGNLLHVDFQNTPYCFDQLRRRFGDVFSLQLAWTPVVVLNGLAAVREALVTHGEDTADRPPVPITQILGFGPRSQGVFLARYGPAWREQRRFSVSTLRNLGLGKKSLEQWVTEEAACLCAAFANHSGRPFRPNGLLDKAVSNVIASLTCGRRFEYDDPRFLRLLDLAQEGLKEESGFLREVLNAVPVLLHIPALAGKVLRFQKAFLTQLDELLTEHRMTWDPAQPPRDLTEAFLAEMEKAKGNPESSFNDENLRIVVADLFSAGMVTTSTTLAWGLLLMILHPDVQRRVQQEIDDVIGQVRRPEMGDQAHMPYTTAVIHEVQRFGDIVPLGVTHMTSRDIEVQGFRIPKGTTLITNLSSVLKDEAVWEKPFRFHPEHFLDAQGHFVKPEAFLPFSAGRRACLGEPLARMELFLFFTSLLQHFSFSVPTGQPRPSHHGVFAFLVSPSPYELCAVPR

CYP3A = CYP3A (Homo sapiens, UniProt P08684)
Sequence of CYP3A (P08684 2-503): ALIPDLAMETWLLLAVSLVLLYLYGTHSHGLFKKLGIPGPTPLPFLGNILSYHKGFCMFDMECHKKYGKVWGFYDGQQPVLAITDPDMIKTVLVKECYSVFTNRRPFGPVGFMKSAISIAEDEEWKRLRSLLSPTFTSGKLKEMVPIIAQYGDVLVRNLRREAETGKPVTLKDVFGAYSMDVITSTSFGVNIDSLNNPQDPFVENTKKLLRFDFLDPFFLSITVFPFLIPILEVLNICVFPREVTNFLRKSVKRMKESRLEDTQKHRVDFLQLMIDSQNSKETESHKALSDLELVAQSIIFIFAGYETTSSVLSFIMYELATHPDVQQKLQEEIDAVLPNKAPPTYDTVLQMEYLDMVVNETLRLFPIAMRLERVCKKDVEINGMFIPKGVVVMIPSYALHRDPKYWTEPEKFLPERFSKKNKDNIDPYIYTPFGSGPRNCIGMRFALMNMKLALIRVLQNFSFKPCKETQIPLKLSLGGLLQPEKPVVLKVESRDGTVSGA

in vivo = details: female, Sprague Dawley, rat
in vitro = details: human
CYP2D6 [12] = target: T1, CYP2D6; experiment: biochemical
[13] = female, Sprague Dawley, iv, 5 mg/kg

O=C(O)c1cc(-c2ccc(/C=C3\SC(=S)N(CCc4ccccc4)C3=O)o2)ccc1Cl [Compound 1, (Z)-2-Chloro-5-(5-((4-oxo-3-phenethyl-2-thioxothiazolidin-5-ylidene)methyl)furan-2-yl)benzoic acid]
IC50 (SARS-CoV pseudovirus [1]): 0.0138 to 0.017 µM
IC50 (SARS-CoV pseudovirus [2]): 0.098 to 0.157 µM
IC50 (MERS-CoV pseudovirus [3]): 0.095 to 0.158 µM
IC50 (MERS-CoV pseudovirus [4]): 0.0765 to 0.123 µM
IC100 [5]: 1.25 µM
inhibition of SARS-CoV-2 mediated cell-to-cell fusion (in words) [6]: potently inhibited the cell-to-cell fusion even at the lowest dose
inhibition at 0.25 µM ([6]; Severe acute respiratory syndrome coronavirus 2, Jurkat, at 250 nM, read-out: inhibitory activity of SARS-CoV-2 mediated cell-to-cell fusion): 62 to 79%
ka [7]: 1040 M⁻¹ s⁻¹
antiviral activity against SARS-CoV-2 pseudovirus (in words) (SARS-CoV-2 pseudovirus): low nanomolar activity; also recorded: excellent antiviral activity; also recorded: low nM IC50
IC50 (SARS-CoV-2 pseudovirus; Severe acute respiratory syndrome-related coronavirus, read-out: IC50s against SARS-CoV-2 pseudovirus over the cell lines): 0.0323 to 0.0634 µM
melting point: 348 to 350 °C
C0 [8, 13]: 7407.25 ng/mL
CLobs [8, 13]: 0.00013 mg/kg/(ng/mL)/hr
MRT0-inf_obs [8, 13]: 4.02 h
Vss_obs [8, 13]: 0.00053 mg/kg/(ng/mL)
F % ([8]; female, Sprague-Dawley): 20.1%
MRT0-inf_obs ([8]; female, Sprague-Dawley, po, 10 mg/kg): 14.34 h
Vz/F_obs ([8]; po, 10 mg/kg): 0.01078 mg/kg/(ng/mL)
Solubility in Phosphate Buffer, Average [9]: 4.72 µM (≈ 2.22 µg/mL)
Solubility in Phosphate Buffer, R1 [9]: 4.35 µM (≈ 2.04 µg/mL)
clearance (in words) [10]: low-clearance compound
CYP inhibition class (CYP1A2): moderate (key: IC50 >10 μM (CYP inhibition low); <10 μM (CYP inhibition moderate); <3 μM (CYP inhibition high))
% of Control Enzyme Activity (n = 1) (CYP1A2; 0.0137 μM): 99.2%
% of Control Enzyme Activity (n = 1) (CYP1A2; 0.0412 μM): 96.7%
% of Control Enzyme Activity (n = 1) (CYP1A2; 0.123 μM): 93.8%
% of Control Enzyme Activity (n = 1) (CYP1A2; 0.370 μM): 92.2%
% of Control Enzyme Activity (n = 1) (CYP1A2; 1.11 μM): 89.8%
% of Control Enzyme Activity (n = 1) (CYP1A2; 3.33 μM): 69.5%
% of Control Enzyme Activity (n = 1) (CYP1A2; 10 μM): 41.3%
IC50 (CYP1A2; human, microsomes, pH 7.4): 7.4 µM
CYP inhibition class (CYP2B6): moderate (key: IC50 >10 μM (CYP inhibition low); <10 μM (CYP inhibition moderate); <3 μM (CYP inhibition high))
% of Control Enzyme Activity (n = 1) (CYP2B6; 0.0137 μM): 97.5%
% of Control Enzyme Activity (n = 1) (CYP2B6; 0.0412 μM): 98.1%
% of Control Enzyme Activity (n = 1) (CYP2B6; 0.123 μM): 90.4%
% of Control Enzyme Activity (n = 1) (CYP2B6; 0.370 μM): 94.2%
% of Control Enzyme Activity (n = 1) (CYP2B6; 1.11 μM): 76.9%
% of Control Enzyme Activity (n = 1) (CYP2B6; 3.33 μM): 47.0%
% of Control Enzyme Activity (n = 1) (CYP2B6; 10 μM): 15.2%
IC50 (CYP2B6; human, microsomes, pH 7.4): 3.19 µM
CYP inhibition class (CYP2C8): high (key: IC50 >10 μM (CYP inhibition low); <10 μM (CYP inhibition moderate); <3 μM (CYP inhibition high))
% of Control Enzyme Activity (n = 1) (CYP2C8; 0.0137 μM): 102%
% of Control Enzyme Activity (n = 1) (CYP2C8; 0.0412 μM): 89.0%
% of Control Enzyme Activity (n = 1) (CYP2C8; 0.123 μM): 98.3%
% of Control Enzyme Activity (n = 1) (CYP2C8; 1.11 μM): 76.9%
% of Control Enzyme Activity (n = 1) (CYP2C8; 3.33 μM): 25.3%
% of Control Enzyme Activity (n = 1) (CYP2C8; 10 μM): 3.87%
IC50 (CYP2C8; human, microsomes, pH 7.4): 2.08 µM
CYP inhibition class (CYP2C9): moderate (key: IC50 >10 μM (CYP inhibition low); <10 μM (CYP inhibition moderate); <3 μM (CYP inhibition high))
% of Control Enzyme Activity (n = 1) (CYP2C9; 0.0137 μM): 99.4%
% of Control Enzyme Activity (n = 1) (CYP2C9; 0.0412 μM): 98.2%
% of Control Enzyme Activity (n = 1) (CYP2C9; 0.123 μM): 97.2%
% of Control Enzyme Activity (n = 1) (CYP2C9; 0.370 μM): 95.1%
% of Control Enzyme Activity (n = 1) (CYP2C9; 1.11 μM): 85.1%
% of Control Enzyme Activity (n = 1) (CYP2C9; 3.33 μM): 59.9%
% of Control Enzyme Activity (n = 1) (CYP2C9; 10 μM): 29.8%
IC50 (CYP2C9; human, microsomes, pH 7.4): 5.01 µM
CYP inhibition class (CYP2C19): moderate (key: IC50 >10 μM (CYP inhibition low); <10 μM (CYP inhibition moderate); <3 μM (CYP inhibition high))
% of Control Enzyme Activity (n = 1) (CYP2C19; 0.0137 μM): 103%
% of Control Enzyme Activity (n = 1) (CYP2C19; 0.0412 μM): 110%
% of Control Enzyme Activity (n = 1) (CYP2C19; 0.123 μM): 101%
% of Control Enzyme Activity (n = 1) (CYP2C19; 0.370 μM): 102%
% of Control Enzyme Activity (n = 1) (CYP2C19; 1.11 μM): 92.0%
% of Control Enzyme Activity (n = 1) (CYP2C19; 3.33 μM): 70.8%
% of Control Enzyme Activity (n = 1) (CYP2C19; 10 μM): 40.7%
IC50 (CYP2C19; human, microsomes, pH 7.4): 7.31 µM
CYP inhibition class (CYP2D6 [11]): low (key: IC50 >10 μM (CYP inhibition low); <10 μM (CYP inhibition moderate); <3 μM (CYP inhibition high))
% of Control Enzyme Activity (n = 1) (CYP2D6 [11]; 0.0137 μM): 95.8%
% of Control Enzyme Activity (n = 1) (CYP2D6 [11]; 0.0412 μM): 98.7%
% of Control Enzyme Activity (n = 1) (CYP2D6 [11]; 0.123 μM): 98.6%
% of Control Enzyme Activity (n = 1) (CYP2D6 [11]; 0.370 μM): 101%
% of Control Enzyme Activity (n = 1) (CYP2D6 [11]; 1.11 μM): 97.0%
% of Control Enzyme Activity (n = 1) (CYP2D6 [11]; 3.33 μM): 84.3%
% of Control Enzyme Activity (n = 1) (CYP2D6 [11]; 10 μM): 59.2%
CYP inhibition class (CYP3A): low (key: IC50 >10 μM (CYP inhibition low); <10 μM (CYP inhibition moderate); <3 μM (CYP inhibition high))
% of Control Enzyme Activity (n = 1) (CYP3A; 0.0137 μM): 96.7% and 96.6%
% of Control Enzyme Activity (n = 1) (CYP3A; 0.0412 μM): 97.0%
% of Control Enzyme Activity (n = 1) (CYP3A; 0.123 μM): 94.5% and 94.8%
% of Control Enzyme Activity (n = 1) (CYP3A; 0.370 μM, 0.37 µM): 95.1% and 96.3%
% of Control Enzyme Activity (n = 1) (CYP3A; 1.11 μM): 95.9% and 94.6%
% of Control Enzyme Activity (n = 1) (CYP3A; 3.33 μM): 88.2% and 82.2%
% of Control Enzyme Activity (n = 1) (CYP3A; 10 μM): 61.6% and 59.9%
AUC(0-t) (in vivo; iv, 5 mg/kg): 37500 ng·h/mL
AUC(0-t) (in vivo; po, 10 mg/kg): 12000 ng·h/mL
CC50 (in vitro): 37.5 ± 1 µM
IC50 (CYP2D6 [12]): > 10 µM
